Results on five substances are retold here after patent publication US20090142363A1, “CYTOTOXIC T-CELL EPITOPE PEPTIDE AND USE THEREOF” (priority 2005, published 2009).

What all share (type): cell-based, human
For assay [1], the system named is peripheral blood / PBMCs / peptide-induced CTL lines of HLA-A*24 donors. As to the kind of experiment: Staining of peripheral blood, PBMCs or peptide-induced CTL lines with MHC-tetramer reagents. Conditions: for staining pattern at day 10 compared to Negative Tetramer reagent: donor ID*24-8, 10 days culture with peptide; for population of CD8-positive, tetramer-positive cells in the UR: donor ID*24-2 and *24-8, FIG. 5; for specific CTLs (CD8-positive MHC-tetramer reagent-positive cells, UR): donor ID*24-2, 13 days stimulation with the peptide, then HIV peptide added, % of whole viable cells. The method, then:
MBL Co. where the present inventors are affiliated with has acquired exclusive patent licensing rights in Japan for MHC-tetramer reagents (U.S. Pat. No. 5,635,363; French Application No. FR9911133; and U.S. Pat. Nos. 5,723,584, 5,874,239, 5,932,433, and 6,265,552) from Beckman Coulter Co. Based on the patents, PE-labeled MHC-tetramer reagents were prepared using adenovirus-specific CTL epitope peptides and HLA-A*2402 molecules.
Adenovirus-specific CTLs quantification was carried out using MHC-tetramer reagents that was prepared using CTL epitope peptides of the present invention, with peripheral blood, PBMCs isolated from peripheral blood, CTL lines induced using CTL epitope peptides as samples. Examples of quantification using PE-labeled MHC-tetramer reagents are described below. Labelling dyes may be used in an appropriate combination depending on the type of flow cytometer to be used, and is not limited to the examples described below.
Ten μl of a PE-labeled MHC-tetramer reagent, 20 μl of an FITC-labeled antibody for T cell (for example, CD8, CD4, or CD3), and such were added to 200 μl of collected peripheral blood. A CD45 antibody labeled with PC5 or such may also be added to eliminate nonspecific fluorescence due to contaminated erythrocytes. After gentle mixing, the mixture was allowed to stand at room temperature for 30 minutes. OptiLyse B was added, and erythrolysis and fixation was carried out according to the manufacturer's protocol. Two ml of PBS was added, stirred, and the cells were centrifuged at 400×g for 5 minutes. After the supernatant was removed by aspiration, the cells were resuspended in 500 μl of PBS and analyzed using a flow cytometer within 24 hours.
Ten μl of a PE-labeled MHC-tetramer reagent, 20 μl of an FITC-labeled T cell surface antibody (for example, CD8, CD4, or CD3), and such were added to an appropriate amount of PBMCs (10^5 to 10^6 cells) or a CTL line induced by use of CTL epitope peptides. A CD45 antibody labeled with PC5 or such may also be added to eliminate nonspecific fluorescence due to contaminated erythrocytes. After gentle mixing, the cells were allowed to stand at room temperature for 30 minutes. Three ml of PBS was added, stirred, and the cells were centrifuged at 400×g for 5 minutes. After the supernatant was removed by aspiration, the cells were resuspended in 500 μl of PBS. When a CTL line is used, 7-AAD Viability Dye (Non-viable cell detection reagent; MBL Co.) may be added to eliminate nonspecific fluorescence caused by non-viable cells. The cells were analyzed using a flow cytometer within 24 hours.
The results of staining obtained using the five types of MHC-tetramer reagents used to prepare the peptide-induced CTL lines are shown in FIG. 5.

Assay [2] concerns CTL line induced by TYF (PBMCs from ID*24-8). As to the kind of experiment: Cross-reactivity of the TYF-induced CTL line to the subgroup C-specific CTL epitope. The settings on record: PBMCs from ID*24-8 stimulated with TYF for 13 days. An excerpt:
As shown in FIG. 11-4, there are amino acid mutations at the fourth and sixth positions in TYF identified in the present invention as compared to the subgroup C-specific CTL epitopes. Thus, the cross-reactivity to subgroup C-specific CTL epitope ([…] (SEQ ID NO: 14); mutated amino acids are underlined) (Leen A M, Sili U, Vanin E F, Jewell A M, Xie W, Vignali D, Piedra P A, Brenner M K, Rooney C M. Conserved CTL epitopes on the adenovirus hexon protein expand subgroup cross-reactive and subgroup-specific CD8+ T cells. Blood. 104:2432-2440 (2004)) was examined using a CTL line induced by TYF.
PBMCs prepared from ID*24-8 were stimulated with TYF for 13 days, and then restimulated with TYF or […] (SEQ ID NO: 14) to examine whether the CTL line produces IFNγ.

Assay [3] relates to PBMCs of healthy adults reactive to the anti-HLA-A*24 antibody. As to the kind of experiment: Induction of specific CTLs from PBMCs, method for quantifying cells producing intracellular IFNγ. Also noted: key to specific CTL induction, cytokine quantification method: ∘: “open circle” indicates that the use of a candidate peptide enabled specific CTLs to be induced; x: “cross” indicates that specific CTLs was unable to be induced. The settings on record: for CD8-positive, IFNγ-positive (producing) cells in UR: restimulation with the same peptide as used in the induction, % in PBMCs. The method, then:
This induction method induces CTLs by adding peptides to culture media of PBMCs. Peptides are presented on antigen-presenting cells present among PBMCs, such as dendritic cells, B cells, macrophages, and certain types of T cells, whereby CTL precursor cells in PBMCs are stimulated to proliferate.
Peripheral blood collected from healthy adults that were reactive to the anti-HLA-A*24 antibody was centrifuged at 3,000 rpm for 5 to 10 minutes. The resulting supernatant plasma was collected. The non-plasma portion was processed according to a conventional method to isolate PBMCs. The characteristic of the present method is the addition of several % of plasma to an induction medium. In the present invention, a favorable result was obtained by adding 5% plasma. The medium is prepared by adding appropriate additives and antibiotics to a medium commonly used for cell culture. The CTL induction medium used in the present invention was RPMI1640 Hepes modify (Sigam) supplemented with 2-mercapotethanol, L-glutamine, and the antibiotics streptomycin and penicillin. In addition to these, insulin, transferrin, selenious acid, pyruvic acid, human serum albumin, solution of non-essential amino acids, and the like may be added. 1 to 3×10^6 PBMCs were suspended in 1 to 2.5 ml of the culture medium. A candidate peptide was added to the cells at a concentration of 1 to 20 μg/ml. The concentration of peptide can be altered depending on the solubility of the peptide. The peptide was added at 10 μg/ml. After two days, IL-2 was added at a final concentration of 20 to 100 U/ml. Round-bottomed culture dishes that allow the exchange of carbon dioxide gas are preferably used to co-culture PBMCs with peptides. In the context of the present invention, 14-ml round-bottomed polypropylene tubes (Becton Dikinson) or 96-well U-bottomed cell culture microtest plates (Becton Dikinson) were used. The adenovirus-specific CTLs were confirmed after about two and four weeks of culture. The cells were stimulated again with the peptide at 10 μg/ml after about two weeks of culture. When the induction of adenovirus-specific CTLs was confirmed, the cells were further stimulated with peptide-pulsed antigen-presenting cells to establish CTL lines.
Approximately 1/10 to all of the cells induced by the above-described method were transferred into 96-well U-bottomed cell culture microtest plates, and the peptide used for the induction was added thereto at a final concentration of 0.01 to 0.05 μg/ml. Then, an intracellular protein transport inhibitor (for example, brefeldin A, monensin, or such) was added, and the cells were cultured in a 5% CO2 incubator at 37° C. for 5 to 16 hours. After culture, the cells were washed, and phycoerythrin (PE)-labeled MHC-tetramer reagent and phycoerythrin-Cy5(PC5)-labeled CD8 antibody (Beckman Coulter) were added thereto. The resulting mixture was allowed to stand at room temperature for 15 to 30 minutes. After washing, the cells were fixed with 4% formaldehyde at 4° C. for 15 minutes and washed with an excess amount of washing solution. After membrane permeabilization treatment with 0.1% saponin, an FITC-labeled anti-IFNγ antibody (Beckman Coulter) was added, and reacted at room temperature for 15 to 30 minutes. After washing, the proportion of IFNγ-positive cells in T cells or MHC-tetramer reagent-positive cells was determined using a flow cytometer.
PBMCs derived from ten people with HLA-A*24 molecule were tested using 10 types of peptides. […] Thus, these six types of candidate epitope peptides serve as adenovirus-specific CTL epitope peptides. Since the adenovirus-specific CTL epitope peptides have the HLA-A*24-binding motif, they are likely to be HLA-A*2402-restricted epitope peptides, which are carried by 60% or more of the Japanese people. In the context of the results described above, MHC-tetramer reagents were synthesized using five types of epitope peptides, and their utility was tested.

In the case of “HLA-A*2402 TYFNLGNKF (Seq Id No: 4) Tetramer Reagent [TYF-Tet]”, the “staining pattern at day 10 compared to Negative Tetramer reagent” value in assay [1] is given as “clear CD8-positive, MHC-tetramer-positive pattern”. Further, in assay [1] (peptide-induced CTL lines), the “population of CD8-positive, tetramer-positive cells in the UR” value is reported as “clearly detected”.
For “HLA-A*2402 VYSGSIPYL (SEQ ID NO: 3) Tetramer Reagent [VYS-Tet]”, the “staining pattern at day 10 compared to Negative Tetramer reagent” value in assay [1] is “clear CD8-positive, MHC-tetramer-positive pattern”. Besides, the “population of CD8-negative, tetramer reagent-positive cells in the UL” value in assay [1] (peptide-induced CTL lines, FIG. 5, VYS-Tet: donor ID*24-1, *24-3, *24-11, *24-12, *24-14) is on record as “detected”. In addition, the “population of CD8-positive, tetramer-positive cells in the UR” value in assay [1] (peptide-induced CTL lines) was “clearly detected”.
As to “QYDPVAALF [CMV pp65, reference compound]”, the “specific CTLs (CD8-positive MHC-tetramer reagent-positive cells, UR)” value in assay [1] is reported as 28.8%.
For the substance “TYFSLNNKF (An artificially synthesized epitope peptide sequence) [reference compound]”, in assay [2], the “IFNγ production of the CTL line induced by TYF on restimulation with the named peptide” value is recorded as “did not produce IFNγ”. The “CD8-positive and TYF-Tet-positive cells” value in assay [2] (restimulated with the named peptide) is listed as 1.97%.
In the case of “TYPVLEEMF [EBV BRLF1, reference compound]”, the results for the “CD8-positive, IFNγ-positive (producing) cells in UR” value in assay [3] (donor *24-8) and in assay [3] (donor *24-12) were 24.9% and 9.57%, respectively. Moreover, the “specific CTL induction, cytokine quantification method” value was “∘” in assay [3] (donor ID *24-1); “∘” in assay [3] (donor ID *24-2); “∘” in assay [3] (donor ID *24-3); “x” in assay [3] (donor ID *24-5); “∘” in assay [3] (donor ID *24-8); “∘” in assay [3] (donor ID *24-10). Besides, the “specific CTL induction, cytokine quantification method” value in assay [3] (donor ID *24-11), in assay [3] (donor ID *24-12), in assay [3] (donor ID *24-13) and in assay [3] (donor ID *24-14) was “∘” each time. For the same substance, the “number of persons with peptide-specific IFNγ production / CTL induction” value in assay [3] (ten persons tested) is listed as “nine of ten persons”. In assay [1], the “specific CTLs (CD8-positive MHC-tetramer reagent-positive cells, UR)” value was 13.0%. In addition, the “positive rate: CD8-positive, MHC-tetramer reagent-positive cells to viable cells” value is 15.6% in assay [1] (donor ID*24-8, PBMCs cultured with the epitope peptide for 10 days (day 10)) and 0.03% in assay [1] (donor ID*24-8, immediately after blood collection (day 0)). Also, in assay [1] (donor ID*24-8, ten days of culture with the peptide), the “increase of the positive rate from day 0 to day 10” value is on record as “about 520 times”.
